Data reported in BindingDB's records for doi:10.1021/jm0510530 (Universit&#224, 2006).

Key:
[1] = Vasodilator activity assessed as ability to relax phenylephrine-induced contraction of Wistar rat aortic strips
[2] = Vasodilator activity assessed as ability to relax phenylephrine-induced contraction of Wistar rat aortic strips in presence of 1 uM ODQ

`Cc1c(C)c2c(c(C)c1O)CCC(C)(CN(C)Cc1no[n+]([O-])c1C(N)=O)O2` (centres undefined) [4-((N-((6-hydroxy-2,5,7,8-tetramethylchroman-2-yl)methyl)-N-methylamino)methyl)furoxan-3-carboxamide] showed an EC50 [1] of 1500 nM and an EC50 [2] of 19000 nM.

`O=S(=O)(c1ccccc1)c1c(OCCCc2ccc(O)cc2)no[n+]1[O-]` [4-(3-(3-benzenesulfonylfuroxan-4-yloxy)propyl)phenol] showed an EC50 [1] of 12 nM and an EC50 [2] of 360 nM.

Compound `CN(CCCc1cc(C(C)(C)C)c(O)c(C(C)(C)C)c1)Cc1no[n+]([O-])c1C(N)=O` [4-((N-(3-(3,5-di-tert-butyl-4-hydroxyphenyl)propyl)-N-methylamino)methyl)furoxan-3-carboxamide] has an EC50 [1] of 410 nM and an EC50 [2] of 7400 nM.

Compound `COc1cc(CCCO[N+](=O)[O-])cc(OC)c1O` [3-(4-hydroxy-3,5-dimethoxyphenyl)propyl nitrate] has an EC50 [1] of 4300 nM.

With `CC(C)(C)c1cc(CCCO[N+](=O)[O-])cc(C(C)(C)C)c1O` [2,6-Di-tert-butyl-4-(3-nitrooxy-propyl)-phenol] the EC50 [1] was 40000 nM.

`CC(C)(C)c1cc(CCCOc2no[n+]([O-])c2S(=O)(=O)c2ccccc2)cc(C(C)(C)C)c1O` [4-(3-(3-benzenesulfonylfuroxan-4-yloxy)propyl)-2,6-di-tertbutylphenol] showed an EC50 [1] of 110 nM and an EC50 [2] of 4800 nM.

`Cc1c(C)c2c(c(C)c1O)CCC(C)(COc1no[n+]([O-])c1S(=O)(=O)c1ccccc1)O2` (centres undefined) [2-(4-Benzenesulfonyl-5-oxy-furazan-3-yloxymethyl)-2,5,7,8-tetramethyl-chroman-6-ol] gave an EC50 [1] of 44 nM and an EC50 [2] of 670 nM.

`COc1cc(CCCOc2no[n+]([O-])c2S(=O)(=O)c2ccccc2)cc(OC)c1O` [4-(3-(3-benzenesulfonylfuroxan-4-yloxy)propyl)-2,6-dimethoxyphenol] showed an EC50 [1] of 22 nM and an EC50 [2] of 500 nM.

For `NC(=O)c1c(CO)no[n+]1[O-]` [4-hydroxymethyl-2-oxy-furazan-3-carboxylic acid amide], the EC50 [1] was 6300 nM.

Work on `Cc1c(C)c2c(c(C)c1O)CCC(C)(COCCCO[N+](=O)[O-])O2` (centres undefined) [2,5,7,8-Tetramethyl-2-(3-nitrooxy-propoxymethyl)-chroman-6-ol] yielded an EC50 [1] of 1200 nM and an EC50 [2] of 10000 nM.

Work on `CN(C)Cc1no[n+]([O-])c1C(N)=O` [4-dimethylaminomethyl-2-oxy-furazan-3-carboxylic acid amide] yielded an EC50 [1] of 3100 nM.

Work on `O=[N+]([O-])OCCCc1ccc(O)cc1` [4-(3-Nitrooxy-propyl)-phenol] yielded an EC50 [1] of 1000 nM.
